“Also recorded” adds a separate entry of the source. Read-outs that look alike come from different tables or passages of the source.
Columns and labels:
A549 cells [1] = assay type: cell-based
A549 cells [2] = assay type: cell-based; remark: listed apart in the source
Balb/c mice lung [3] = details: mouse, in vivo
LC3 = tested on: LC3; set-up: species or system Balb/c mice; details: mouse, in vivo
Balb/c mice lung [4] = details: mouse, in vivo; remark: listed apart in the source
A549 cells [5] = assay type: cell-based; remark: listed apart in the source
Balb/c mice = details: mouse, in vivo
Balb/c mice lung [6] = details: mouse, in vivo; remark: listed apart in the source
Balb/c mice lung [7] = details: mouse, in vivo; remark: listed apart in the source

| SMILES | percentage of A549 cells with autophagy induced by PAMAM G3, electron microscope (A549 cells [1]) | survival rate of A549 cells (A549 cells [2]) | lung wet/dry ratio (Balb/c mice lung [3]) | lung wet/dry ratio (Balb/c mice lung [3]; ip) | content of LC3 II in mice lung tissue (ratio to β-actin) (LC3) | lung injury, pathological sections (Balb/c mice lung [4]) | percentage of cells with EGFP-LC3 agglutination (A549 cells [5]) | survival curve of mice (Balb/c mice) | lung elasticity (Balb/c mice lung [6]) | counts of inflammatory cells in lung pathological sections (Balb/c mice lung [7]) | cell autophagy induced by inactivated H5N1 avian influenza virus, electron microscope (A549 cells [1]) |
| --- | --- | --- | --- | --- | --- | --- | --- | --- | --- | --- | --- |
| Cn1cnc(N)c2ncnc1-2 [3-MA, 3-methyladenine] | can be relieved; also recorded: reduced the percentage of cells with autophagy | decreases the cell death; also recorded: can significantly reduce cell death | decreased the augmentation of wet/dry ratio | relieved the increased lung wet/dry ratio | relieved the occurrence of autophagy | has some effect on ameliorating the lung injury | can be relieved | can significantly relieve the death of mice; also recorded: has effect on delaying the death of mice | relieves the changes of lung elasticity; also recorded: has some effect on relieving the induced injury | reduced the augmentation of the counts inflammatory cells |  |
| C[S+]([O-])c1ccc(-c2nc(-c3ccncc3)c(-c3ccc(F)cc3)[nH]2)cc1 (stereo not shown) [SB203580] |  |  |  |  |  | has some effect on ameliorating the lung injury; also recorded: has some effect on amelioratiing the lung injury |  |  |  | reduced the counts of infiltrated inflammatory cells; also recorded: reduced the augmentation of infiltrated inflammatory cells | reduced cell autophagy; also recorded: can effectively inhibit the occurrence of autophagy |

— patent US20120238566A1, “USE OF CELL AUTOPHAGY (TYPE II CELL APOPTOSIS) INHIBITORS” (priority 2009, published 2012)
